# Activity calls are given as the source filed them. No cut-off for these calls is given here.
# How the values were obtained:
# NCI-H2228 = experiment: Antiproliferative activity against human NCI-H2228 cells harboring wild type KRAS assessed as reduction in cell viability incubated for 72 hrs by MTT assay; assay type: functional, cell-based; settings: NCI-H2228, 72 h
# A549 = experiment: Antiproliferative activity against human A549 cells harboring KRAS G12S mutant assessed as reduction in cell viability incubated for 72 hrs by MTT assay; assay type: functional, cell-based; settings: A549, 72 h
# NCI-H23 = experiment: Antiproliferative activity against human NCI-H23 cells harboring KRAS G12C mutant assessed as reduction in cell viability incubated for 72 hrs by MTT assay; assay type: functional, cell-based; settings: NCI-H23, 72 h
# NCI-H358 = experiment: Antiproliferative activity against human NCI-H358 cells harboring KRAS G12C mutant assessed as reduction in cell viability incubated for 72 hrs by MTT assay; assay type: functional, cell-based; settings: NCI-H358, 72 h
# [1] = Selectivity index, ratio of IC50 for human A549 cells harboring KRAS G12S mutant to IC50 for human NCI-H23 cells harboring KRAS G12C mutant; assay type: functional
# [2] = Selectivity index, ratio of IC50 for human NCI-H2228 cells harboring wild type KRAS to IC50 for human NCI-H358 cells harboring KRAS G12C mutant; assay type: functional
# [3] = Selectivity index, ratio of IC50 for human A549 cells harboring KRAS G12S mutant to IC50 for human NCI-H358 cells harboring KRAS G12C mutant; assay type: functional
# [4] = Selectivity index, ratio of IC50 for human NCI-H2228 cells harboring wild type KRAS to IC50 for human NCI-H23 cells harboring KRAS G12C mutant; assay type: functional
# [5] = system: GTPase KRas (Homo sapiens), P01116 [G12C]; experiment: (§1) Inhibition of 6His tagged Mant-GDP loaded human KRAS G12C mutant (1 to 169 residues) expressed in Escherichia coli BL21 (DE3) cells assessed as inhibition of SOS1-mediated nucleotide exchange at 10 uM preincubated with compound for 1 hrs followed by addition of GTP and SOS1 protein and measured every 90 sec for 2 hrs by fluorescence based assay; settings: time 3.0 hrs
# [6] = biological target: GTPase KRas (Homo sapiens) (UniProt P01116); experiment: Covalent binding affinity to 6his tagged GDP bound human wildtype KRAS expressed in Escherichia coli BL21 (DE3) cells at 200 uM incubated for 24 hrs by LC-MS/MS analysis
# [7] = system: GTPase KRas (Homo sapiens), P01116 [G12C]; experiment: Covalent binding affinity to 6His tagged GDP bound human KRAS G12C mutant (1 to 169 residues) expressed in Escherichia coli BL21 (DE3) cells at 200 uM incubated for 24 hrs by LC-MS /MS analysis
# [8] = system: GTPase KRas (Homo sapiens), P01116 [G12C]; experiment: as §1, with “[…]” for “SOS1-mediated”, “EDTA” for “SOS1 protein”; settings: time 3.0 hrs
Structure (SMILES),IC50 (NCI-H2228),IC50 (A549),IC50 (NCI-H23),IC50 (NCI-H358),Ratio IC50 [1],Ratio IC50 [2],Ratio IC50 [3],Ratio IC50 [4],inhibition [5],Activity [6],Activity [7],inhibition [8]
C=CC(=O)N1CC[C@H](NC(=O)Nc2ccc(Cl)c(Cl)c2)C1,65.3 µM,> 100 µM,40.8 µM,34.2 µM,,,,,,,,
C=CS(=O)(=O)N1CCC(NC(=O)Nc2ccc(Cl)c(C(F)(F)F)c2)CC1,6.4 µM,3.3 µM,2.6 µM,4.2 µM,,,,,,,,
COc1cccc(F)c1-c1cc(NC(=O)NC2CCN(C(=O)CCl)CC2)ccc1Cl,> 100 µM,66.9 µM,31.1 µM,27.8 µM,,,,,,,,
C=CC(=O)NC1CCN(C(=O)c2cc(=O)c3cc(Cl)c(I)cc3[nH]2)CC1,31.6 µM,22.8 µM,35.5 µM,19.2 µM,,,,,,,,
C=CS(=O)(=O)NC1CCN(C(=O)c2cc(=O)c3cc(Cl)c(I)cc3[nH]2)CC1,19.4 µM,11.9 µM,6.4 µM,9.1 µM,2,2,2,2,,,,
O=C(Nc1ccc(Cl)c(Cl)c1)NC1CCN(C(=O)CCl)CC1,9.2 µM,7.4 µM,4.8 µM,5.5 µM,,,,,,,,
C=CC(=O)N1CC[C@H](NC(=O)Nc2ccc(Cl)cc2)C1,> 100 µM,> 100 µM,> 100 µM,> 100 µM,,,,,,,,
O=C(CCl)NC1CCN(C(=O)c2cc(=O)c3cc(Cl)c(I)cc3[nH]2)CC1,8.6 µM,9.8 µM,2.7 µM,4.5 µM,2,2,2,2,,,,
O=C(Nc1ccc(Cl)cc1)NC1CCN(C(=O)CCl)CC1,14.1 µM,17.5 µM,5.1 µM,3.8 µM,3,3,3,3,Active,inactive,Active,inactive
C=CC(=O)N1CCC(NC(=O)Nc2ccc(Cl)cc2)CC1,> 100 µM,> 100 µM,> 100 µM,> 100 µM,,,,,,,,
C=CC(=O)N1CC[C@H](NC(=O)c2cc(=O)c3cc(Cl)c(I)cc3[nH]2)C1,13.1 µM,24.4 µM,10.3 µM,14.9 µM,,,,,,,,
O=C(Nc1ccc(Cl)c(-c2ccccc2F)c1)NC1CCN(C(=O)CCl)CC1,34.9 µM,> 100 µM,42.8 µM,37.7 µM,,,,,,,,
O=C(Nc1ccc(Cl)c(C(F)(F)F)c1)N[C@H]1CCN(C(=O)CCl)C1,7.3 µM,11.3 µM,1.5 µM,2.4 µM,3,3,3,3,,,,
C=CC(=O)N1CCC(NC(=O)Nc2ccc(Cl)c(Cl)c2)CC1,53.2 µM,> 100 µM,> 100 µM,> 100 µM,,,,,,,,
C=CC(=O)N1CC[C@@H](NC(=O)c2cc(=O)c3cc(Cl)c(I)cc3[nH]2)C1,24.6 µM,20.3 µM,11.6 µM,10 µM,,,,,,,,
